Earlier results, collected in patent US20110002851A1, “Cationic Colloidal Carriers for Delivery of Active Agents to the Blood-Brain Barrier in the Course of Neuroinflammatory Diseases” (MediGene AG, priority 2006, published 2011).

How the values were obtained:
T cell = settings: micellar paclitaxel formulation
MMP-9 = settings: LPS-stimulated astrocytes and microglia

Row | SMILES | T cell proliferation (T cell) | expression of MMP-9 (MMP-9)
1 | CC(=O)O[C@H]1C(=O)[C@@]2(C)[C@H]([C@H](OC(=O)c3ccccc3)[C@]3(O)C[C@H](OC(=O)[C@H](O)[C@@H](NC(=O)c4ccccc4)c4ccccc4)C(C)=C1C3(C)C)[C@]1(OC(C)=O)CO[C@@H]1C[C@@H]2O (racemic) [paclitaxel] | dose-dependent suppression | –
2 | Cc1cn([C@H]2C[C@H](N=[N+]=[N-])[C@@H](CO)O2)c(=O)[nH]c1=O [AZT, zidovudine] | – | dose-dependently inhibited
3 | CC(C)(C)NC(=O)[C@@H]1CN(Cc2cccnc2)CCN1C[C@@H](O)C[C@@H](Cc1ccccc1)C(=O)N[C@H]1c2ccccc2C[C@H]1O [IDV, indinavir] | – | dose-dependently inhibited
